Paper PMC12210405, “Identification of chemical scaffolds for targeting ubiquitin-specific protease 11 (USP11) through high-throughput virtual screening” (Journal of Enzyme Inhibition and Medicinal Chemistry, 2025)

Tests used:
GST-USP11 [1] = target: T1, GST-USP11 (Homo sapiens, UniProt P51784); assay: Fluorescence-based deubiquitinating enzyme activity assay (Ub-AMC fluorogenic substrate); assay type: biochemical; settings: for inhibition at 25 µM: read-out: Percent inhibition of USP11
T1 construct: The plasmids containing the intact USP11 gene were introduced into E. coli BL21-CodonPlus (DE3); made in house; host or cells: E. coli BL21-CodonPlus (DE3)
From the text: The deubiquitinating enzyme (DUB) activity of USP11 was monitored using Ubiquitin AMC (Ub-AMC) (#U-550–050, R&D Systems, Minneapolis, MN, USA) as a fluorogenic substrate. […] USP11 DUB activity of vehicle control or each compound group was quantified by calculating the area under curve (AUC) using Prism 9 software (GraphPad, Boston, MA, USA).
Using a -fluorogenic substrate assay with ubiquitin 7-amido-4-methylcoumarin (Ub-AMC), we tested varying concentrations of both the protein and the substrate. […] Hits were defined as compounds that inhibited enzyme activity by more than 40%, as determined by fluorescence intensity at the 90-min endpoint.

USP15 = settings: cited from earlier work
GST-USP11 [2] = target: T1, GST-USP11; assay: Biolayer interferometry (BLI) assay; assay type: binding
Protocol: The binding affinities of tested compounds for USP11 were determined using BRAND® microplates (#BR781608, Merck, Darmstadt, Germany) and an Octet® R8 system (Sartorius AG, Göttingen, Germany). Octet GST Biosensors (#18–5096, Sartorius AG, Göttingen, Germany) captured with purified GST-USP11 (50 μg/ml) or without proteins were used as ligand sensors or reference sensors, respectively. For binding kinetic measurements, the association and dissociation of tested compounds (3.125–100 μM) in assay buffer (PBS, 0.02% Tween 20, 2% DMSO) were monitored at 25 °C with 1,000 rpm stirring for 90 s. For accurate baseline, wells containing assay buffer only were used as reference wells. All data were analysed by Octet BLI analysis software version 12.2 (Sartorius AG, Göttingen, Germany). The binding graphs were obtained using a double reference subtraction protocol and equilibrium dissociation constant (KD) values were calculated from the ratio of the dissociation rate constant (Kdis) to the association rate constant (Kon).

[3] = compound 25 µM, 90-min endpoint, Ub-AMC

T1 sequence (P51784 whole entry): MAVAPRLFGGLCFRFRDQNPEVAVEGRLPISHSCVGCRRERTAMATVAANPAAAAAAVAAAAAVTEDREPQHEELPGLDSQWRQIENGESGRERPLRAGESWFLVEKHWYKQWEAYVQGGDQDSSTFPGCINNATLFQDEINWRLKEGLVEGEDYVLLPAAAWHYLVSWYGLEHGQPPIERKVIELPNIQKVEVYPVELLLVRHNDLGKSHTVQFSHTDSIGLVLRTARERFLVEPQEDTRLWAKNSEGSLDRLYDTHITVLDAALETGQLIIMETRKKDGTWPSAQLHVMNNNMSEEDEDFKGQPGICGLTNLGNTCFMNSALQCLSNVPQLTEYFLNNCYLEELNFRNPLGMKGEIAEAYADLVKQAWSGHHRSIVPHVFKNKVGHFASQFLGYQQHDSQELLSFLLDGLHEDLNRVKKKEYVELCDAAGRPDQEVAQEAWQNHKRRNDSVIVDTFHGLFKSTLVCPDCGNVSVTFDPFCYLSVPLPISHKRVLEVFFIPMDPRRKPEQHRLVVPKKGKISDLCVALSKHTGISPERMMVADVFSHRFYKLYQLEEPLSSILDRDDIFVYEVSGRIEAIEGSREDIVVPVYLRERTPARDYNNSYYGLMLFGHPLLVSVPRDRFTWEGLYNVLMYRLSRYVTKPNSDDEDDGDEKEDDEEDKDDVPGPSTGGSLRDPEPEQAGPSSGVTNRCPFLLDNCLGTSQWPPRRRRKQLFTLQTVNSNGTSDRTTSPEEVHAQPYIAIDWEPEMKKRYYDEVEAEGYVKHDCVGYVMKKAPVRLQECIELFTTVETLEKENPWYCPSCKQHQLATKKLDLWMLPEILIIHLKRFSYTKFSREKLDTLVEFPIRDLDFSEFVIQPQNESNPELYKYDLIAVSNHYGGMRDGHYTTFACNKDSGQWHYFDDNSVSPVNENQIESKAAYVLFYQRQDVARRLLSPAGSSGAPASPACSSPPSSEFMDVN

| Structure (SMILES) | inhibition at 25 µM (GST-USP11 [1]; [3]) [%] | further results |
| --- | --- | --- |
| Nc1ccc(NC(=O)c2ccccc2)c2c1C(=O)c1ccccc1C2=O [Compound 74f] | 7.38 | – |
| CCCCOc1cc(CN2CCN(c3ccc(NC(=N)c4ccc[nH]4)cc3)CC2)cc(OCCCC)c1O [Compound 73] | 43.9 | – |
| N#CC1CCCN1C(=O)CNC1CCCN(c2ccc([N+](=O)[O-])c3nonc23)C1 (centres unmarked) [Compound 18] | 55.8 | – |
| N#CC1CCCN1C(=O)CNCCN1CCN(c2ccc([N+](=O)[O-])c3nonc23)CC1 (centres unmarked) [Compound 18h] | 7.89 | – |
| CCCCOc1cc(CN2CCN(c3ccc(NC(=N)c4cccs4)cc3)CC2)cc(OCCCC)c1O [Compound 73e] | 23 | – |
| O=C1c2ccccc2C(=O)c2c1cc(N1CCOCC1)cc2N1CCCCC1 [Compound 74g] | 6.51 | – |
| CCOc1cc(CN2CCN(c3ccc(NC(=N)c4ccc[nH]4)cc3)CC2)cc(OCC)c1O [Compound 73b] | 38.1 | – |
| CCCCCOc1cc(CN2CCN(c3ccc(NC(=N)c4cccs4)cc3)CC2)cc(OCCCCC)c1O [Compound 73d] | 23 | – |
| O=[N+]([O-])c1ccc(N2CCCCCC2)c2nonc12 [Compound 18c] | 36.9 | – |
| Nc1ccc(O)c2c1C(=O)c1c(cccc1[N+](=O)[O-])C2=O [Compound 74c] | 38.1 | – |
| CCOc1cc(/C=C/C(=O)N2CCN(c3ccc(NC(=N)c4ccc[nH]4)cc3)CC2)cc(OCC)c1O [Compound 73c] | 76.8 | – |
| O=C1c2c(O)ccc(O)c2C(=O)c2c(NCCNCCO)ccc(NCCNCCO)c21 [Mitoxantrone, mitoxantrone] | – | USP15 inhibition in words (USP15): also inhibits USP15 |
| CCCCCOc1cc(CN2CCN(c3ccc(NC(=N)c4ccc[nH]4)cc3)CC2)cc(OCCCCC)c1O [Compound 73a] | 90.3 | IC50 (GST-USP11 [1]; USP11, Figure S6): 17.5 µM |
| NCCNc1ccc(NCCN)c2c1C(=O)c1ccncc1C2=O [Compound 74a] | 58.4 | – |
| CC(C)[C@@H](CC[C@@H](C)[C@H]1CC[C@H]2[C@@H]3[C@H](O)C[C@H]4C[C@@H](NCCCNCCCCN)CC[C@]4(C)[C@H]3CC[C@]12C)OS(=O)(=O)O [Squalamine, squalamine] | – | Kd (GST-USP11 [2]): 459 µM; kon (GST-USP11 [2]; Figure 3c): 1380 M⁻¹ s⁻¹; koff (GST-USP11 [2]; Figure 3c, read-out: Kdis): 0.634 s⁻¹; Percent inhibition of USP11 (GST-USP11 [1]; [3]): completely inhibits; IC50 (GST-USP11 [1]; recombinant USP11): 8.29 µM |
| O=[N+]([O-])c1ccc(N2CCCCC2)c2nonc12 [Compound 18b] | 3.3 | – |
| O=[N+]([O-])c1ccc(N2CCCC2)c2nonc12 [Compound 18a] | 15 | – |
| CCCCOc1cc(/C=C/C(=O)N2CCN(c3ccc(NC(=N)c4ccc[nH]4)cc3)CC2)cc(OCCCC)c1O [Compound 73f] | 89.9 | IC50 (GST-USP11 [1]; USP11, Figure S6): 19.4 µM |
| CN(c1ccc(C=O)cc1)c1cccc2c1C(=O)c1ccccc1C2=O [Compound 74e] | 16.8 | – |
| O=[N+]([O-])c1c(N2CCCCC2)cc(N2CCCCC2)c2nonc12 [Compound 18d] | 27.9 | – |
| CCOC(=O)CCNc1ccc(Nc2ccc(C)cc2)c2c1C(=O)c1ccccc1C2=O [Compound 74d] | 0 | – |
| O=C(CCc1ccc(F)cc1)N/N=C/c1ccc(O)c(O)c1O [Compound 29] | 41.5 | – |
| NC1CCC(Nc2ccc([N+](=O)[O-])c3nonc23)CC1 (centres unmarked) [Compound 18e] | 64.8 | – |
| N#CC1CCCN1C(=O)CNC1CCC(Nc2ccc([N+](=O)[O-])c3nonc23)CC1 (centres unmarked) [Compound 18f] | 23.8 | – |
| CC(CO)C1CCC2C3C(CCC12C)C1(C)CCC(NCCCCN)C[C@@H]1C[C@H]3O (some centres unmarked) [Compound 57] | 44.8 | – |
| N#CC1CC=NN1C(=O)CNC1CCC(Nc2ccc([N+](=O)[O-])c3nonc23)CC1 (centres unmarked) [Compound 18g] | 70.9 | – |
